Laboratory results reported in PMC12332266 (Frontiers in Pharmacology, 2025).
Like-named read-outs stand apart in the source and are kept apart here. Each block holds one molecule with its values, some of them ahead of it.

Tests used:
[1] = ref extensive literature search, cited from earlier work
[2] = test system: hiPSC-CM (iCell Cardiomyocytes^2); assay: Intracellular miRNA expression by RT-qPCR in hiPSC-CM pellets after 72-hour treatment; conditions: for fold induction at 0.3 µM / fold induction at 1 µM / fold induction at 3 µM / fold induction at 10 µM: Homo sapiens
In short: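 After 72-hour treatment and RTCA CardioECR assessment, total RNA from hiPSC-CM pellets was reverse transcribed, pre-amplified and quantified by TaqMan RT-qPCR against a 17-miRNA panel. Triplicates were pooled, so no statistical analysis was performed.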

[3] = test system: hiPSC-CM (iCell Cardiomyocytes^2); assay: RTCA CardioECR assessment (impedance and electrophysiology parameters)
In short: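 iCell^2 cardiomyocytes on fibronectin-coated ePlates monitored continuously by impedance for cell index, beating rate and amplitude. Field potential duration and spike amplitude were recorded from day 4–6 after monolayer formation. Data were double-normalized to DMSO control and baseline, with variability given as SD.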

[4] = 72 h, read-out: hsa-miR-7-5p fold change
[5] = 72 h, read-out: hsa-miR-29a-5p fold change
[6] = 72 h, read-out: hsa-miR-96-5p fold change
[7] = 72 h, read-out: hsa-miR-126-3p fold change
[8] = 72 h, read-out: hsa-miR-146b-5p fold change
[9] = 72 h, read-out: hsa-miR-182-5p fold change
[10] = 72 h, read-out: hsa-miR-185-3p fold change
[11] = 72 h, read-out: hsa-miR-187-3p fold change
[12] = 72 h, read-out: hsa-miR-208b-3p fold change
[13] = 72 h, read-out: hsa-miR-[…] change

miRNAs hiPSC-CM pellet, MEC overall [2]: 0.1 µM
miRNAs upregulated at the MEC overall (hiPSC-CM pellet) [2]: miR-126-3p, miR-146b-5p, miR-208b-3p
Beating Rate MEC ([3]; human, 72 h): 3 µM
Beating rate (BR) MEC ([3]; human, 72 h): 3 µM
Contractility Amplitude MEC ([3]; human, 72 h): 0.1 µM
Field Potential Duration MEC ([3]; human, 72 h): 1 µM
RTCA, MEC (BR) ([3]; human, 72 h): 3 µM (CI, BR)
RTCA, MEC (CI) ([3]; human, 72 h): 3 µM (CI, BR)
Spike Amplitude (SA) MEC ([3]; human, 72 h): 0.1 µM
SMILES: N=C(N)c1ccc(OCCCCCOc2ccc(C(=N)N)cc2)cc1 [Pentamidine]
Cmax total ([1]; Supplementary Table 1): 1800 nM
Cmax total ([1]; Table 1): 1800 nM

miRNAs hiPSC-CM pellet, MEC overall [2]: 0.3 µM
miRNAs upregulated at the MEC overall (hiPSC-CM pellet) [2]: miR-96-5p, miR-146b-5p
Contractility Amplitude MEC ([3]; human, 72 h): 0.0003 µM
Spike Amplitude (SA) MEC ([3]; human, 72 h): 10 µM
SMILES: CCCN1C[C@H](CSC)C[C@@H]2c3cccc4[nH]cc(c34)C[C@H]21 [Pergolide]
Cmax total ([1]; Supplementary Table 1): 12700 nM
Cmax total ([1]; Table 1): 12700 nM
fold induction at 0.3 µM [2, 4]: 1
fold induction at 1 µM [2, 4]: 0.7
fold induction at 3 µM [2, 4]: 1.4
fold induction at 10 µM [2, 4]: 1
fold induction at 0.3 µM [2, 5]: 1
fold induction at 1 µM [2, 5]: 0.2
fold induction at 0.3 µM [2, 6]: 2.8
fold induction at 1 µM [2, 6]: 5.6
fold induction at 0.3 µM [2, 7]: 1.2
fold induction at 1 µM [2, 7]: 1.1
fold induction at 3 µM [2, 7]: 1.1
fold induction at 10 µM [2, 7]: 2
fold induction at 0.3 µM [2, 8]: 4.3
fold induction at 1 µM [2, 8]: 6.1
fold induction at 3 µM [2, 8]: 20.8
fold induction at 10 µM [2, 8]: 1.1
fold induction at 0.3 µM [2, 9]: 0.5
fold induction at 1 µM [2, 9]: 2.2
fold induction at 3 µM [2, 9]: 0.9
fold induction at 10 µM [2, 9]: 2.2
fold induction at 0.3 µM [2, 10]: 1.1
fold induction at 1 µM [2, 10]: 5.6
fold induction at 3 µM [2, 10]: 7.2
fold induction at 10 µM [2, 10]: 1.9
fold induction at 0.3 µM [2, 11]: 0.6
fold induction at 1 µM [2, 11]: 0.9
fold induction at 3 µM [2, 11]: 21.8
fold induction at 10 µM [2, 11]: 0.6
fold induction at 0.3 µM [2, 12]: 1.5
fold induction at 1 µM [2, 12]: 2.2
fold induction at 3 µM [2, 12]: 2.6
fold induction at 10 µM [2, 12]: 2.5
fold induction at 1 µM ([2]; 72 h, read-out: hsa-miR-365a-5p fold change): 5.2
fold induction at 0.3 µM [2, 13]: 0.9
fold induction at 1 µM [2, 13]: 1.1
fold induction at 3 µM [2, 13]: 1.7
fold induction at 10 µM [2, 13]: 1.4

miRNAs hiPSC-CM pellet, MEC overall ([2]; lowest concentration tested which produced miRNA upregulation (fold change ≥2), 72 h): 0.01 µM
Beating Rate MEC ([3]; hiPSC-CM, 72-hour treatment, at least 20% change, Supplementary Table 1): 1 µM
Beating rate (BR) MEC ([3]; hiPSC-CM, 72-hour treatment, lowest concentration causing at least 20% change from baseline): 1 µM
RTCA, MEC (BR) ([3]; hiPSC-CM, change ≥20%, Table 2): 1 µM (BR)
Spike Amplitude (SA) MEC ([3]; human, 72 h): 0.01 µM
SMILES: CCN(CC)CCNC(=O)c1c(C)[nH]c(/C=C2\C(=O)Nc3ccc(F)cc32)c1C [Sunitinib]
Cmax total ([1]; Supplementary Table 1): 181 to 250 nM
Cmax total ([1]; Table 1): 180 to 250 nM
